Data taken from ChEMBL document CHEMBL1201862, “PubChem BioAssay data set” (2004).
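Each compound was tested at five concentrations against cells in 96-well plates for 48 hours. Here, GI50 denotes the concentration required for 50% inhibition of growth.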 Activity calls are given as the source filed them. Rule as the data show it: active = GI50 up to about 1.1 µM and inactive = higher.

Tests used:
Assay in all cases: inhibition of tumour cell growth, NCI panel, 48 h
HOP-92 = system: HOP-92
IGROV-1 = system: IGROV-1
COLO 205 = system: COLO 205
HOP-62 = system: HOP-62
HCT-116 = system: HCT-116
SK-MEL-28 = system: SK-MEL-28
SNB-75 = system: SNB-75
SN12C = system: SN12C
SR = system: SR
HT-29 = system: HT-29
RXF 393 = system: RXF 393
KM12 = system: KM12
OVCAR-5 = system: OVCAR-5
NCI-H460 = system: NCI-H460
Malme-3M = system: Malme-3M
A549 = system: A549
MOLT-4 = system: MOLT-4
SF-268 = system: SF-268
UACC-62 = system: UACC-62
A498 = system: A498

Measured: GI50

N#CC1(C#N)C2C=CC(C3CCC=C32)C1(C#N)C#N (stereo unspecified)
inactive: HOP-92 > 10 µM | IGROV-1 > 10 µM | COLO 205 1.94 µM | HOP-62 > 10 µM | HCT-116 > 6.56 µM | SK-MEL-28 > 10 µM | SNB-75 > 10 µM | SN12C > 10 µM | SR 7.4 µM | HT-29 > 10 µM | RXF 393 > 10 µM | KM12 > 10 µM | OVCAR-5 > 10 µM | NCI-H460 > 10 µM | Malme-3M 2.57 µM | A549 > 10 µM | MOLT-4 2.14 µM | SF-268 > 10 µM | UACC-62 > 10 µM | A498 > 10 µM

O=c1c(-c2ccccc2)c(SCCCN2CCCCC2)n(-c2ccccc2)c(=S)n1-c1ccccc1
inactive: HOP-92 12.1 µM | IGROV-1 17.9 µM | COLO 205 17.6 µM | HOP-62 17.8 µM | SK-MEL-28 16.9 µM | SNB-75 15.3 µM | SR 16.2 µM | RXF 393 14.3 µM | KM12 19.4 µM | OVCAR-5 > 100 µM | NCI-H460 16.4 µM | Malme-3M 21.5 µM | MOLT-4 18.2 µM | UACC-62 16.1 µM | A498 15.1 µM

CCOc1cc(/C=N\O)cc(/C=N/O)c1O
inactive: HOP-92 23.8 µM | COLO 205 22.8 µM | HOP-62 37.1 µM | HCT-116 38.5 µM | SK-MEL-28 22.8 µM | SNB-75 23.1 µM | SN12C 51.6 µM | SR 29.3 µM | HT-29 29.4 µM | RXF 393 14.5 µM | KM12 54.3 µM | OVCAR-5 50.6 µM | NCI-H460 31.9 µM | Malme-3M 37.2 µM | A549 29.5 µM | MOLT-4 29.1 µM | SF-268 22.6 µM | UACC-62 50.7 µM | A498 18 µM

CC1(C)COC2C(N(Cc3ccccc3)Cc3ccccc3)C(=O)N21 (stereo unspecified)
inactive: HOP-92 29.3 µM | IGROV-1 41.9 µM | COLO 205 25.1 µM | HOP-62 36.9 µM | HCT-116 33.4 µM | SK-MEL-28 42.3 µM | SNB-75 20 µM | SN12C 47.3 µM | SR 19.1 µM | HT-29 31.8 µM | RXF 393 19.3 µM | KM12 37.8 µM | OVCAR-5 > 100 µM | NCI-H460 39.7 µM | Malme-3M 38.6 µM | A549 32.6 µM | MOLT-4 25.9 µM | SF-268 25.2 µM | UACC-62 25.1 µM | A498 48.8 µM

COc1ccc(NCC(=O)Nn2c(-c3ccccc3)nc3ccccc3c2=O)cc1
inactive: HOP-92 25.4 µM | IGROV-1 27 µM | COLO 205 37.2 µM | HOP-62 86.1 µM | HCT-116 > 10 µM | SK-MEL-28 74.5 µM | SNB-75 44.4 µM | SN12C 36.6 µM | SR 35.8 µM | HT-29 32.4 µM | RXF 393 > 10 µM | KM12 70.8 µM | OVCAR-5 > 100 µM | NCI-H460 51.1 µM | Malme-3M 30 µM | A549 53.7 µM | MOLT-4 18.4 µM | SF-268 36.2 µM | UACC-62 14.1 µM | A498 23.3 µM

O=c1c2c3c(sc2nc(CN2CCNCC2)n1-c1ccccc1)CCCC3
inactive: HOP-92 > 100 µM | IGROV-1 > 100 µM | COLO 205 > 100 µM | HOP-62 > 100 µM | HCT-116 53.3 µM | SK-MEL-28 > 100 µM | SNB-75 34.8 µM | SN12C > 100 µM | SR > 100 µM | HT-29 35.9 µM | RXF 393 > 100 µM | KM12 > 100 µM | OVCAR-5 > 100 µM | NCI-H460 > 100 µM | Malme-3M > 100 µM | A549 > 100 µM | MOLT-4 > 100 µM | SF-268 65.5 µM | UACC-62 > 100 µM | A498 > 100 µM

N#CC1(CCCI)CCCC1
inactive: HOP-92 15.6 µM | IGROV-1 > 100 µM | COLO 205 27.8 µM | HCT-116 4.18 µM | SK-MEL-28 16.5 µM | SNB-75 1.53 µM | SN12C 12.3 µM | SR 15.4 µM | HT-29 15.2 µM | RXF 393 11 µM | KM12 17.5 µM | OVCAR-5 25.1 µM | NCI-H460 2.92 µM | Malme-3M 18.8 µM | A549 20.6 µM | MOLT-4 13.8 µM | SF-268 12.6 µM | UACC-62 11 µM | A498 35.9 µM

COc1nc2[nH]ccc2c(=O)[nH]1
inactive: HOP-92 > 100 µM | IGROV-1 > 100 µM | COLO 205 > 100 µM | HCT-116 > 100 µM | SK-MEL-28 > 100 µM | SNB-75 > 100 µM | SN12C > 100 µM | SR > 100 µM | HT-29 > 100 µM | RXF 393 > 100 µM | KM12 > 100 µM | OVCAR-5 > 100 µM | NCI-H460 > 100 µM | Malme-3M > 100 µM | A549 > 100 µM | MOLT-4 > 100 µM | SF-268 > 100 µM | A498 > 100 µM
